Test system: MV-4-11 cells
Assay: Gene expression microarray analysis (Affymetrix PrimeView) and GSEA
Format: cell-based, human
Design: RFU PODN (11730768_x_at) / Fold change /veh PODN (11730768_x_at) / RFU LINC00158 (11744669_a_at) / Fold change /veh LINC00158 (11744669_a_at) / RFU DUSP10 (11751237_a_at) / Fold change /veh DUSP10 (11751237_a_at) / RFU ID3 (11757404_x_at) / Fold change /veh ID3 (11757404_x_at) / RFU PLEKHG5 (11737974_s_at) / Fold change /veh PLEKHG5 (11737974_s_at) / RFU LRRC4B (11730491_at) / Fold change /veh LRRC4B (11730491_at) / RFU GIMAP4 (11747438_a_at) / Fold change /veh GIMAP4 (11747438_a_at) / RFU KRT8 (11758183_x_at) / Fold change /veh KRT8 (11758183_x_at) / RFU CNN1 (11734310_a_at) / Fold change /veh CNN1 (11734310_a_at) / RFU VPS37D (11726825_at) / Fold change /veh VPS37D (11726825_at) / RFU C10orf10 (11716522_x_at) / Fold change /veh C10orf10 (11716522_x_at) / RFU KIR2DL2 /// KIR2DL4 /// KIR2DL5A /// KIR2DL5B /// KIR2DS1 /// KIR2DS2 /// KIR2DS3 /// KIR2DS4 /// KIR3DL3 /// KIR3DL3 /// KIR3DS1 (11738374_at) / Fold change /veh KIR2DL2 /// KIR2DL4 /// KIR2DL5A /// KIR2DL5B /// KIR2DS1 /// KIR2DS2 /// KIR2DS3 /// KIR2DS4 /// KIR3DL3 /// KIR3DL3 /// KIR3DS1 (11738374_at) / RFU C1QL1 (11718748_at) / Fold change /veh C1QL1 (11718748_at) / RFU TMPRSS4 (11747572_a_at) / Fold change /veh TMPRSS4 (11747572_a_at) / RFU HAMP (11756126_x_at) / Fold change /veh HAMP (11756126_x_at) / RFU RNFT2 (11725882_a_at) / Fold change /veh RNFT2 (11725882_a_at) / RFU NR4A2 (11747474_a_at) / Fold change /veh NR4A2 (11747474_a_at) / RFU ABCC12 (11746883_a_at) / Fold change /veh ABCC12 (11746883_a_at) / RFU TMEM136 (11760407_x_at) / Fold change /veh TMEM136 (11760407_x_at) / RFU CLDN22 /// WWC2 (11732394_at) / Fold change /veh CLDN22 /// WWC2 (11732394_at) / RFU HLA-DPB1 (11760878_x_at) / Fold change /veh HLA-DPB1 (11760878_x_at) / RFU SPINT1 (11716480_a_at) / Fold change /veh SPINT1 (11716480_a_at) / RFU GAP43 (11754022_s_at) / Fold change /veh GAP43 (11754022_s_at) / RFU A4GNT (11735810_at) / Fold change /veh A4GNT (11735810_at) / RFU PRB3 (11715151_x_at) / Fold change /veh PRB3 (11715151_x_at) / RFU TUBB4B (11761932_at) / Fold change /veh TUBB4B (11761932_at) / RFU CAPN14 (11732068_a_at) / Fold change /veh CAPN14 (11732068_a_at) / RFU TMCC2 (11721928_a_at) / Fold change /veh TMCC2 (11721928_a_at) / RFU IRGQ (11745062_a_at) / Fold change /veh IRGQ (11745062_a_at) / RFU FAM174B (11720279_a_at) / Fold change /veh FAM174B (11720279_a_at) / RFU TMPRSS4 (11748680_a_at) / Fold change /veh TMPRSS4 (11748680_a_at) / RFU FAM212B (11763350_a_at) / Fold change /veh FAM212B (11763350_a_at) / RFU PLEKHG5 (11743358_a_at) / Fold change /veh PLEKHG5 (11743358_a_at) / RFU ZSCAN30 (11745921_a_at) / Fold change /veh ZSCAN30 (11745921_a_at) / RFU CMKLR1 (11741424_a_at) / Fold change /veh CMKLR1 (11741424_a_at) / RFU LOC101060620 /// MAPK8IP1 (11723275_at) / Fold change /veh LOC101060620 /// MAPK8IP1 (11723275_at) / RFU SPTSSB (11747773_x_at) / Fold change /veh SPTSSB (11747773_x_at) / RFU PRSS12 (11739890_at) / Fold change /veh PRSS12 (11739890_at) / RFU BIN1 (11741810_x_at) / Fold change /veh BIN1 (11741810_x_at) / RFU WNT11 (11732464_a_at) / Fold change /veh WNT11 (11732464_a_at) / RFU C10orf10 (11716521_a_at) / Fold change /veh C10orf10 (11716521_a_at) / RFU C5orf56 (11738089_at) / Fold change /veh C5orf56 (11738089_at) / RFU CYB561 (11721691_x_at) / Fold change /veh CYB561 (11721691_x_at) / RFU ANKRD19P (11752326_a_at) / Fold change /veh ANKRD19P (11752326_a_at) / RFU OR2T12 /// OR2T33 /// OR2T8 (11738714_s_at) / Fold change /veh OR2T12 /// OR2T33 /// OR2T8 (11738714_s_at) / RFU VCAN (11748164_a_at) / Fold change /veh VCAN (11748164_a_at) / RFU JSRP1 (11732532_at) / Fold change /veh JSRP1 (11732532_at) / RFU KRTAP10-11 (11738290_x_at) / Fold change /veh KRTAP10-11 (11738290_x_at) / RFU MYO3A (11730013_a_at) / Fold change /veh MYO3A (11730013_a_at) / RFU EBF3 (11725865_a_at) / Fold change /veh EBF3 (11725865_a_at) / RFU CAMK2N1 (11719241_x_at) / Fold change /veh CAMK2N1 (11719241_x_at) / RFU C5orf56 (11738088_a_at) / Fold change /veh C5orf56 (11738088_a_at) / RFU OLFML3 (11715873_a_at) / Fold change /veh OLFML3 (11715873_a_at) / RFU LOC100653217 /// NTM (11731650_a_at) / Fold change /veh LOC100653217 /// NTM (11731650_a_at) / RFU MAPK11 (11762145_a_at) / Fold change /veh MAPK11 (11762145_a_at) / RFU FIZ1 (11724087_x_at) / Fold change /veh FIZ1 (11724087_x_at) / RFU OASL (11726364_x_at) / Fold change /veh OASL (11726364_x_at) / RFU SOX15 (11748057_x_at) / Fold change /veh SOX15 (11748057_x_at) / RFU CD79A (11719716_a_at) / Fold change /veh CD79A (11719716_a_at) / RFU HIST1H1D (11736915_at) / Fold change /veh HIST1H1D (11736915_at) / RFU CASKIN2 (11723855_a_at) / Fold change /veh CASKIN2 (11723855_a_at) / RFU LOC730098 (11760151_x_at) / Fold change /veh LOC730098 (11760151_x_at) / RFU OR4N2 (11742367_at) / Fold change /veh OR4N2 (11742367_at) / RFU PRRT2 (11749266_a_at) / Fold change /veh PRRT2 (11749266_a_at) / RFU SNX32 (11753110_a_at) / Fold change /veh SNX32 (11753110_a_at) / RFU CDHR5 (11726645_a_at) / Fold change /veh CDHR5 (11726645_a_at) / RFU RCAN1 (11760418_a_at) / Fold change /veh RCAN1 (11760418_a_at) / RFU FAM167A (11723789_a_at) / Fold change /veh FAM167A (11723789_a_at) / RFU FAM26E (11764081_at) / Fold change /veh FAM26E (11764081_at) / RFU ISYNA1 (11749810_s_at) / Fold change /veh ISYNA1 (11749810_s_at) / RFU ACY1 (11761880_at) / Fold change /veh ACY1 (11761880_at) / RFU 11764098_at / Fold change /veh 11764098_at / RFU SAMD14 (11745864_x_at) / Fold change /veh SAMD14 (11745864_x_at) / RFU NPB (11741838_a_at) / Fold change /veh NPB (11741838_a_at) / RFU TMPRSS6 (11731388_a_at) / Fold change /veh TMPRSS6 (11731388_a_at) / RFU KRTAP10-2 (11738614_at) / Fold change /veh KRTAP10-2 (11738614_at) / RFU ARHGAP8 /// PRR5-ARHGAP8 (11727945_x_at) / Fold change /veh ARHGAP8 /// PRR5-ARHGAP8 (11727945_x_at) / RFU KRTAP5-7 /// NADSYN1 (11734609_at) / Fold change /veh KRTAP5-7 /// NADSYN1 (11734609_at) / RFU RASL12 (11751679_a_at) / Fold change /veh RASL12 (11751679_a_at) / RFU CDKN2B (11736163_a_at) / Fold change /veh CDKN2B (11736163_a_at) / RFU PRF1 (11729649_at) / Fold change /veh PRF1 (11729649_at) / RFU, ZNF638 /// ZNF638-IT1 / Fold change vs veh, ZNF638 /// ZNF638-IT1 / RFU, PANK3 / Fold change vs veh, PANK3 / RFU, SH3YL1 / Fold change vs veh, SH3YL1 / RFU, ZEB2 / Fold change vs veh, ZEB2 / RFU, NRIP1 / Fold change vs veh, NRIP1 / RFU, PTTG1IP / Fold change vs veh, PTTG1IP / RFU, CAPN2 / Fold change vs veh, CAPN2 / RFU, MED14 / Fold change vs veh, MED14 / RFU, SNORA58 / Fold change vs veh, SNORA58 / RFU, C1orf63 / Fold change vs veh, C1orf63 / RFU, LRRFIP1 / Fold change vs veh, LRRFIP1 / RFU, NDUFAF7 / Fold change vs veh, NDUFAF7 / RFU, SLC12A2 / Fold change vs veh, SLC12A2 / RFU, IBTK / Fold change vs veh, IBTK / RFU, ESF1 / Fold change vs veh, ESF1 / Fold change vs veh, TMEM50B / RFU, TAOK1 / Fold change vs veh, TAOK1 / RFU, ACBD3 / Fold change vs veh, ACBD3 / RFU, TMA16 / Fold change vs veh, TMA16 / RFU, RWDD3 / Fold change vs veh, RWDD3 / RFU, BCAT1 / Fold change vs veh, BCAT1 / RFU, EDEM3 / Fold change vs veh, EDEM3 / RFU, TMEM33 / Fold change vs veh, TMEM33 / RFU, WDR75 / Fold change vs veh, WDR75 / RFU, AHCTF1 / Fold change vs veh, AHCTF1 / RFU, TFRC / Fold change vs veh, TFRC / RFU, ZDHHC17 / Fold change vs veh, ZDHHC17 / RFU, NOM1 / Fold change vs veh, NOM1 / RFU, ARL8B / Fold change vs veh, ARL8B / RFU, ZBTB11 / Fold change vs veh, ZBTB11 / RFU, TAMM41 / Fold change vs veh, TAMM41 / RFU, KIAA1704 /// LOC100996395 / Fold change vs veh, KIAA1704 /// LOC100996395 / RFU, ING1 / Fold change vs veh, ING1 / RFU, TRMT61B / Fold change vs veh, TRMT61B / RFU, FUBP3 / Fold change vs veh, FUBP3 / RFU, TP53 / Fold change vs veh, TP53 / RFU, TNKS2 / Fold change vs veh, TNKS2 / RFU, ZFP14 / Fold change vs veh, ZFP14 / RFU, ACTR2 / Fold change vs veh, ACTR2 / RFU, PPP3R1 / Fold change vs veh, PPP3R1 / RFU, PIK3R1 / Fold change vs veh, PIK3R1 / RFU, HNRNPA1 / Fold change vs veh, HNRNPA1 / RFU, RNF170 / Fold change vs veh, RNF170 / RFU, ZNF28 / Fold change vs veh, ZNF28 / RFU, RNGTT / Fold change vs veh, RNGTT / RFU, OGT / Fold change vs veh, OGT / RFU, BRD1 / Fold change vs veh, BRD1 / RFU, MARS / Fold change vs veh, MARS / RFU, ZNF655 / Fold change vs veh, ZNF655 / RFU, FAHD1 / Fold change vs veh, FAHD1 / RFU, BDP1 / Fold change vs veh, BDP1 / RFU, LRRCC1 / Fold change vs veh, LRRCC1 / RFU, ARID1A / Fold change vs veh, ARID1A / RFU, ZNF146 / Fold change vs veh, ZNF146 / RFU, ZNF330 / Fold change vs veh, ZNF330 / RFU, GPN3 / Fold change vs veh, GPN3 / RFU, C9orf123 / Fold change vs veh, C9orf123 / RFU, N4BP2L2 / Fold change vs veh, N4BP2L2 / RFU, ARFIP1 / Fold change vs veh, ARFIP1 / RFU, FAM179B / Fold change vs veh, FAM179B / RFU, BCL10 / Fold change vs veh, BCL10 / RFU, UHRF1BP1L / Fold change vs veh, UHRF1BP1L / RFU, BET1 / Fold change vs veh, BET1 / RFU, CNOT2 / Fold change vs veh, CNOT2 / RFU, ZNF268 / Fold change vs veh, ZNF268 / Fold change vs veh, ZNF507 / RFU, DGCR2 / Fold change vs veh, DGCR2 / RFU, WDSUB1 / Fold change vs veh, WDSUB1 / Fold change vs veh, HSP90B1 /// MIR3652 / RFU, ADSS / Fold change vs veh, ADSS / RFU, GK / Fold change vs veh, GK / RFU, ZNF148 / Fold change vs veh, ZNF148 / RFU, TAF9 / Fold change vs veh, TAF9 / RFU, SLC1A5 / Fold change vs veh, SLC1A5 / RFU, SLMO2 / Fold change vs veh, SLMO2 / RFU, ABCC4 / Fold change vs veh, ABCC4 / RFU, LOC101060439 /// RAP1B / Fold change vs veh, LOC101060439 /// RAP1B / RFU, RFX7 / Fold change vs veh, RFX7 / RFU, GTPBP10 / Fold change vs veh, GTPBP10 / RFU, CNEP1R1 / Fold change vs veh, CNEP1R1 / RFU, BIVM-ERCC5 /// ERCC5 / Fold change vs veh, BIVM-ERCC5 /// ERCC5 / RFU, ILF3 / Fold change vs veh, ILF3 / RFU 11762660_at / Fold change /veh 11762660_at / RFU VCAN (11757783_s_at) / Fold change /veh VCAN (11757783_s_at) / RFU DDX43 (11728927_at) / Fold change /veh DDX43 (11728927_at) / RFU KRT8 (11758188_x_at) / Fold change /veh KRT8 (11758188_x_at) / RFU NKD1 (11759106_at) / Fold change /veh NKD1 (11759106_at) / RFU SRD5A1 (11742802_a_at) / Fold change /veh SRD5A1 (11742802_a_at) / RFU TPSAB1 /// TPSB2 (11721975_s_at) / Fold change /veh TPSAB1 /// TPSB2 (11721975_s_at) / RFU GSTM3 (11746129_a_at) / Fold change /veh GSTM3 (11746129_a_at) / RFU IL23R (11737362_x_at) / Fold change /veh IL23R (11737362_x_at) / RFU TMEM51 (11727254_a_at) / Fold change /veh TMEM51 (11727254_a_at) / RFU PIWIL2 (11732686_x_at) / Fold change /veh PIWIL2 (11732686_x_at) / RFU ORM1 (11744905_x_at) / Fold change /veh ORM1 (11744905_x_at) / RFU CCDC152 (11743942_at) / Fold change /veh CCDC152 (11743942_at) / RFU ECM1 (11717891_a_at) / Fold change /veh ECM1 (11717891_a_at) / RFU IL23R (11748794_a_at) / Fold change /veh IL23R (11748794_a_at) / RFU TNFAIP8L3 (11732012_x_at) / Fold change /veh TNFAIP8L3 (11732012_x_at) / RFU MBOAT4 (11741988_at) / Fold change /veh MBOAT4 (11741988_at) / RFU 11764193_at / Fold change /veh 11764193_at / RFU TMEM53 (11763286_at) / Fold change /veh TMEM53 (11763286_at) / RFU MAGEB2 (11727129_at) / Fold change /veh MAGEB2 (11727129_at) / RFU TMEM200A (11744735_a_at) / Fold change /veh TMEM200A (11744735_a_at) / RFU CCDC152 (11751479_a_at) / Fold change /veh CCDC152 (11751479_a_at) / RFU FAM211A (11726209_a_at) / Fold change /veh FAM211A (11726209_a_at) / RFU RGS16 (11746705_a_at) / Fold change /veh RGS16 (11746705_a_at) / RFU VCAN (11755009_s_at) / Fold change /veh VCAN (11755009_s_at) / RFU RHOB (11743442_s_at) / Fold change /veh RHOB (11743442_s_at) / RFU RGS16 (11720943_a_at) / Fold change /veh RGS16 (11720943_a_at) / RFU RGS16 (11720944_at) / Fold change /veh RGS16 (11720944_at) / RFU, VPS4B / Fold change vs veh, VPS4B / RFU, CREB1 / Fold change vs veh, CREB1 / RFU, DNAJC13 / Fold change vs veh, DNAJC13 / RFU, GNAQ / Fold change vs veh, GNAQ / RFU, CDK5R1 / Fold change vs veh, CDK5R1 / RFU, ZRANB3 / Fold change vs veh, ZRANB3 / RFU, CUL4A / Fold change vs veh, CUL4A / RFU, CCNY / Fold change vs veh, CCNY / RFU, UFL1 / Fold change vs veh, UFL1 / RFU, COG3 / Fold change vs veh, COG3 / RFU, DIAPH2 / Fold change vs veh, DIAPH2 / RFU, SKA2 / Fold change vs veh, SKA2 / RFU, AFF3 / Fold change vs veh, AFF3 / RFU, LMF1 / Fold change vs veh, LMF1 / RFU, IPO11 / Fold change vs veh, IPO11 / RFU, DFFB / Fold change vs veh, DFFB / RFU, FOXP1 / Fold change vs veh, FOXP1 / RFU, CARD8 / Fold change vs veh, CARD8 / RFU, STRN3 / Fold change vs veh, STRN3 / RFU, ADK / Fold change vs veh, ADK / RFU, RASSF2 / Fold change vs veh, RASSF2 / RFU, WIPF1 / Fold change vs veh, WIPF1 / RFU, LARP1B / Fold change vs veh, LARP1B / RFU, RASA1 / Fold change vs veh, RASA1 / RFU, RB1 / Fold change vs veh, RB1 / RFU, PPFIA1 / Fold change vs veh, PPFIA1 / RFU, MAT2A / Fold change vs veh, MAT2A / RFU, CCT5 / Fold change vs veh, CCT5 / RFU, WDR92 / Fold change vs veh, WDR92 / RFU, CUX1 / Fold change vs veh, CUX1 / RFU, TTC7A / Fold change vs veh, TTC7A / RFU, TMEM135 / Fold change vs veh, TMEM135 / RFU, DEPTOR / Fold change vs veh, DEPTOR / RFU, CPM / Fold change vs veh, CPM / RFU, DNAJB6 / Fold change vs veh, DNAJB6 / RFU, CACNA2D3 / Fold change vs veh, CACNA2D3 / RFU, DTX4 / Fold change vs veh, DTX4 / RFU, TFCP2 / Fold change vs veh, TFCP2 / RFU, GMCL1 /// GMCL1P1 / Fold change vs veh, GMCL1 /// GMCL1P1 / RFU, AEBP2 / Fold change vs veh, AEBP2 / RFU, SNHG1 /// SNORD22 /// SNORD25 /// SNORD26 /// SNORD27 /// SNORD28 /// SNORD29 /// SNORD31 / Fold change vs veh, SNHG1 /// SNORD22 /// SNORD25 /// SNORD26 /// SNORD27 /// SNORD28 /// SNORD29 /// SNORD31 / Fold change (Aza/veh), C12orf56 (ProbeSet 11735607_a_at) / Fold change (ACY-1035/veh), C12orf56 (ProbeSet 11735607_a_at) / Fold change (Aza/veh), FGFR1OP (ProbeSet 11751329_s_at) / Fold change (ACY-1035/veh), FGFR1OP (ProbeSet 11751329_s_at) / Fold change (Aza/veh), VPS36 (ProbeSet 11739960_a_at) / Fold change (ACY-1035/veh), VPS36 (ProbeSet 11739960_a_at) / RFU SYPL1 (11715823_x_at) / Fold change /veh SYPL1 (11715823_x_at) / RFU IGFBP7 (11715501_s_at) / Fold change /veh IGFBP7 (11715501_s_at) / RFU REEP3 (11722064_at) / Fold change /veh REEP3 (11722064_at) / RFU IGLL1 (11728026_x_at) / Fold change /veh IGLL1 (11728026_x_at): dose or concentration left out as unconfirmed
Details: MV-4-11 cells, 48 hours

Q: Which “Fold change /veh CDHR5 (11726645_a_at)” value does the source give for `Nc1ccc(-c2cccs2)cc1NC(=O)c1ccc2c(c1)cc(C1CC1)n2CCN1CCOCC1` [ACY-1035] here?
A: 1.11
